From patent publication US10266535B2, “Inhibitor of FLT3 kinase and use thereof” (HEFEI INSTITUTES OF PHYSICAL SCIENCE, CHINESE ACADEMY OF …, priority 2015, dated 2019)
Where two headings read alike, the source gives them in different places.

Assays:
[1] = tested on: MV4-11 (expressing FLT3/ITD mutant gene); test: Cell proliferation, Cell Titer-Glo, MV4-11; type: cell-based; details: Homo sapiens, MV4-11, 72 h, read-out: MV4-11 IC50 [μM]
In short: (§1)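 Read-out: luminescence from ATP in live cells (CellTiter-Glo), taken as viable cell number. Cell lines were built in-house.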

[2] = tested on: TPR-MET-BaF3 (stably expressing MET kinase); test: Cell proliferation, Cell Titer-Glo, TPR-MET-BaF3; type: cell-based; details: Mus musculus; incubated for 72 hours
In short: (§2)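 Each BaF3 line carrying its activated kinase was made by the authors' own laboratory; the amount of ATP in living cells was quantified by CellTiter-Glo luminescence to determine surviving cell number.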

[3] = tested on: U937 (expressing wild-type FLT3 gene); test: Cell proliferation, Cell Titer-Glo, U937; type: cell-based, human; details: Homo sapiens, U-937, 72 h, read-out: U937 IC50 [μM], incubated for 72 hours
In short: as §1

pro-B cell BaF3 = test: Cell proliferation, Cell Titer-Glo, BaF3; type: cell-based; details: Mus musculus, incubated for 72 hours
In short: as §1

[4] = tested on: BaF3-FLT3-ITD-D835Y (stably expressing FLT3/ITD D835Y mutant activated kinase); test: Cell proliferation, Cell Titer-Glo, BaF3-FLT3-ITD-D835Y; type: cell-based; details: Mus musculus, 72 h, read-out: BaF3-FLT3-ITD-D835Y IC50 [μM]
Method: (§3) The above cell lines were constructed by our laboratory.
(§4) The number of viable cells was determined by quantification of ATP in living cells using the Cell Titer-Glo® (Promega, USA) chemiluminescence cell viability assay kit.

[5] = tested on: MOLM-14 (expressing FLT3/ITD mutant gene and wild-type FLT3 gene); test: Cell proliferation, Cell Titer-Glo, MOLM-14; type: cell-based; details: Homo sapiens, MOLM-14, 72 h, read-out: MOLM-14 IC50 [μM]
In short: as §1

MOLM-13 cell lines = test: Cell apoptosis, Western Blot of PARP and Caspase 3 cleavage, MOLM-13; type: cell-based, human; details: MOLM-13, 0.1 μM
From the text: (§5) Western Blot was used to detect the effects of different concentrations of drugs on protein cleavage of DNA repair enzyme, poly ADP-ribose polymerase PARP and cysteinyl aspartate specific proteinase Caspase 3 at different time intervals (FIG. 3).

[6] = tested on: MV4-11 cell lines carrying FLT3/ITD mutant gene; test: Cell cycle distribution by flow cytometry; type: cell-based, human; details: MV4-11, 0.1 μM, 24 hours
[7] = tested on: TEL-cKIT-BaF3 (stably expressing cKIT kinase); test: Cell proliferation, Cell Titer-Glo, TEL-cKIT-BaF3; type: cell-based; details: Mus musculus; incubated for 72 hours
In short: as §2

[8] = tested on: TEL-FLT3-BaF3 (stably expressing FLT3 kinase); test: Cell proliferation, Cell Titer-Glo, TEL-FLT3-BaF3; type: cell-based; details: Mus musculus, 72 h, read-out: TEL-FLT3-BaF3 IC50 [μM]
Method: as §3, §4

[9] = tested on: BaF3-FLT3-ITD-F691L (stably expressing FLT3/ITD F691L mutant activated kinase); test: Cell proliferation, Cell Titer-Glo, BaF3-FLT3-ITD-F691L; type: cell-based; details: Mus musculus, 72 h, read-out: BaF3-FLT3-ITD-F691L IC50 [μM]
Method: as §3, §4

[10] = tested on: TEL-BaF3-BMX (stably expressing BMX kinase); test: Cell proliferation, Cell Titer-Glo, TEL-BaF3-BMX; type: cell-based; details: Mus musculus; incubated for 72 hours
In short: as §2

MV4-11 cell lines = test: Cell apoptosis, Western Blot of PARP and Caspase 3 cleavage, MV4-11; type: cell-based, human; details: after 24 hours
From the text: as §5

[11] = tested on: TEL-BaF3-FLT3-D835Y (stably expressing FLT3 D835Y mutant activated kinase); test: Cell proliferation, Cell Titer-Glo, TEL-BaF3-FLT3-D835Y; type: cell-based; details: Mus musculus, 72 h, read-out: TEL-BaF3-FLT3-D835Y IC50 [μM]
In short: as §2

[12] = tested on: Signaling pathways of FLT3 in MV4-11 and MOLM-14 cell lines; test: Effects on upstream and downstream signaling pathways of FLT3 in cells; type: cell-based, human; details: for efficacy compared with Control Compound AC220: AC220 at 0.1 μM; for C-Myc (degradation; for AC220 phosphorylation) / phosphorylation of STAT5 / phosphorylation of protein kinase FLT3: treated for 4 hours
[13] = tested on: TEL-BaF3-BLK (stably expressing BLK kinase); test: Cell proliferation, Cell Titer-Glo, TEL-BaF3-BLK; type: cell-based; details: Mus musculus; incubated for 72 hours
In short: as §2

[14] = tested on: TEL-BaF3-FLT3/ITD (stably expressing FLT3/ITD mutant activated kinase); test: Cell proliferation, Cell Titer-Glo, TEL-BaF3-FLT3/ITD; type: cell-based, mouse; details: Mus musculus, 72 h
In short: as §2

[15] = tested on: TEL-JAK1-BaF3 (stably expressing JAK1 kinase); test: Cell proliferation, Cell Titer-Glo, TEL-JAK1-BaF3; type: cell-based; details: Mus musculus; incubated for 72 hours
In short: as §2

[16] = tested on: BaF3-tel-cKit-D816V (stably expressing cKIT D816V mutant activated kinase); test: Cell proliferation, Cell Titer-Glo, BaF3-tel-cKit-D816V; type: cell-based; details: Mus musculus; incubated for 72 hours
Method: as §3, §4

[17] = tested on: MOLM-13 (expressing FLT3/ITD mutant gene and wild-type FLT3 gene); test: Cell proliferation, Cell Titer-Glo, MOLM-13; type: cell-based; details: Homo sapiens, MOLM-13, 72 h, read-out: MOLM-13 IC50 [μM]
In short: as §1

MOLM-14 cells = test: Nude mouse subcutaneous tumor model with MOLM-14 cells; type: in vivo; details: oral gavage; for tumor growth of the mice: 12.5-50 mg/kg
Method: More than 30 mice (5-week-old) (Balb/c-nu female mice, purchased from Shanghai Snake Experimental Animal Co., Ltd.) were inoculated subcutaneously with MOLM-14 cells in 1×10^7 cells/mouse, the changes in body weight and tumor volume were recorded daily (tumor volume=Tumor length×tumor width^2/2).

[18] = tested on: BaF3-tel-cKit-N882K (stably expressing cKIT N882K mutant activated kinase); test: Cell proliferation, Cell Titer-Glo, BaF3-tel-cKit-N882K; type: cell-based; details: Mus musculus; incubated for 72 hours
Method: as §3, §4

[19] = tested on: TEL-BaF3-EGFR (stably expressing EGFR kinase); test: Cell proliferation, Cell Titer-Glo, TEL-BaF3-EGFR; type: cell-based; details: Mus musculus; incubated for 72 hours
Method: as §3, §4

BTK protein kinase = BTK protein kinase (Homo sapiens (Human), UniProt Q06187); test: In vitro inhibition activity (enzymatic activity), ADP-Glo, BTK; type: biochemical; details: ATP 10 μM
[20] = tested on: BaF3-tel-cKit-T670I (stably expressing cKIT T670I mutant activated kinase); test: Cell proliferation, Cell Titer-Glo, BaF3-tel-cKit-T670I; type: cell-based; details: Mus musculus; incubated for 72 hours
Method: as §3, §4

[21] = read-out: TEL-BaF3-FLT3/ITD IC50 [μM], incubated for 72 hours

Sequence of BTK protein kinase (Q06187 whole entry): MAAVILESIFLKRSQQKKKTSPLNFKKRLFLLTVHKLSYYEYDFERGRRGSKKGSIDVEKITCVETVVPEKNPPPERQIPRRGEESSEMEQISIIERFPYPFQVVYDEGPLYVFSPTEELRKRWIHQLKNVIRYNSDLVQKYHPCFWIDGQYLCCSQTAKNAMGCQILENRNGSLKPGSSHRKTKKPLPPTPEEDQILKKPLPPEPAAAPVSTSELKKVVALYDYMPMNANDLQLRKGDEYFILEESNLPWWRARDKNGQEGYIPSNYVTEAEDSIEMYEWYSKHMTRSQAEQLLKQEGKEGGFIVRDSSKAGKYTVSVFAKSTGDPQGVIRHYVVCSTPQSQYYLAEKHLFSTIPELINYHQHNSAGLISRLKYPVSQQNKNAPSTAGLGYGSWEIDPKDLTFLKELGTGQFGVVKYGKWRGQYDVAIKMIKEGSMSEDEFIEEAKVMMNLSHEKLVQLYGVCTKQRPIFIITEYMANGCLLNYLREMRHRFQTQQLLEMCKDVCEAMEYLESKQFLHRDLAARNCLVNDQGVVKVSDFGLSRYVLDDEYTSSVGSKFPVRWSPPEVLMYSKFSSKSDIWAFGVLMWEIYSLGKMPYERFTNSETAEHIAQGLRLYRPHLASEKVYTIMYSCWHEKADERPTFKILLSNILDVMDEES

IC50 [1] [µM]	IC50 [3] [µM]	IC50 (pro-B cell BaF3) [nM]	IC50 [4] [µM]	IC50 [5] [µM]	IC50 [8] [µM]	IC50 [9] [µM]	IC50 [10] [nM]	IC50 [11] [µM]	IC50 [13] [nM]	Compound	IC50 [2] [nM]	number of cells captured in G0-G1 phase [6] [%]	IC50 [7] [µM]	efficacy compared with Control Compound AC220 [12]	C-Myc (degradation; for AC220 phosphorylation) [12]	phosphorylation of STAT5 [12]	phosphorylation of protein kinase FLT3 [12]	IC50 [14, 21] [µM]	IC50 [17] [µM]	tumor growth of the mice (MOLM-14 cells; 2 to 3 weeks)	further results
0.01	3.3	750	0.28	0.002	0.013	0.43	63	0.002	3	CC(C)C[C@@H](N)C(=O)N[C@H]1CC[C@@H](n2nc(-c3ccc(Oc4ccccc4)cc3)c3c(N)ncnc32)CC1.Cl (stereo in doubt) [Compound 84, (R)-2-amino-N-(4-(4-amino-3-(4-phenoxyphenyl)-1H-pyrazolo[3,4-d]pyrimidin-1-yl)cis-1,4-cyclohexyl)-4-methylpentanamide hydrochloride]	2900	89.92	6.1	better efficacy	significant effects on the degradation	very strong inhibitory effects	strongly inhibited	< 0.0003	–	–	cleavage of Caspase 3 (MOLM-13 cell lines; after 24 hours): very significant cleavage; cleavage of poly ADP-ribose polymerase PARP (MOLM-13 cell lines; after 24 hours): very significant cleavage; cleavage of Caspase 3 (MV4-11 cell lines; MV 4-11, 0.03 μM): cleavage; cleavage of poly ADP-ribose polymerase PARP (MV4-11 cell lines; MV 4-11, 0.03 μM): relatively significant cleavage
0.0016	3.4	2200	0.073	0.0084	0.0081	0.067	52	0.021	2.6	CC(C)C[C@@H](N)C(=O)NC1CCC(n2nc(-c3ccc(Oc4ccccc4)cc3)c3c(N)ncnc32)CC1.Cl (stereo partly drawn) [Compound 77, (R)-2-amino-N-(4-(4-amino-3-(4-phenoxyphenyl)-1H-pyrazolo[3,4-d]pyrimidin-1-yl)cyclohexyl)-4-methylpentanamide hydrochloride]	–	–	–	better efficacy	significant effects on the degradation	very strong inhibitory effects	strongly inhibited	–	0.0027	significantly inhibited	tumor volume growth of the mice (MOLM-14 cells; 25 mg/kg/day): significantly slowed down; growth of the tumors of the mice (MOLM-14 cells; 50.0 mg/kg/day): almost no growth; IC50 (BTK protein kinase): 128 nM; IC50 ([14]; incubated for 72 hours, read-out: TEL-BaF3-FLT3/ITD IC50): < 0.0003 µM

Compound	IC50 [1] [µM]	IC50 [3] [µM]	IC50 (pro-B cell BaF3) [nM]	IC50 [4] [µM]	IC50 [5] [µM]	IC50 [8] [µM]	IC50 [9] [µM]	IC50 [10] [nM]	IC50 [11] [µM]	IC50 [13] [nM]	IC50 [2] [nM]	number of cells captured in G0-G1 phase [6] [%]	IC50 [7] [µM]	efficacy compared with Control Compound AC220 [12]	C-Myc (degradation; for AC220 phosphorylation) [12]	phosphorylation of STAT5 [12]	phosphorylation of protein kinase FLT3 [12]	IC50 [14, 21] [µM]	IC50 [17] [µM]	tumor growth of the mice (MOLM-14 cells; 2 to 3 weeks)	further results
CN(C)CC(=O)N1CCC[C@@H](n2nc(-c3ccc(Oc4ccccc4)cc3)c3c(N)ncnc32)C1 [Compound 22, (R)-1-(3-(4-amino-(4-phenoxyphenyl)-1H-pyrazolo[3,4-d]pyrimidin-1-yl)piperidin-1-yl)-2-(dimethylamino)ethanone]	0.022	9.7	4900	0.17	0.042	–	0.22	280	–	940	2200	95.78	1.9	–	significant effects on the degradation	very strong inhibitory effects	strongly inhibited	0.011	0.021	significantly inhibited	IC50 [15]: 3.8 µM; IC50 [16]: 1000 nM; cleavage of Caspase 3 (MOLM-13 cell lines; after 12 hours): very significant cleavage; cleavage of poly ADP-ribose polymerase PARP (MOLM-13 cell lines; after 12 hours): very significant cleavage; tumor volume growth of the mice (MOLM-14 cells; dose not specified, 2 to 3 weeks): significantly slowed down; IC50 [18]: 1200 nM; cleavage of Caspase 3 (MV4-11 cell lines; MV 4-11, 0.1 μM): very significant cleavage; cleavage of poly ADP-ribose polymerase PARP (MV4-11 cell lines; MV 4-11, 0.1 μM): significant cleavage; IC50 [19]: 1800 nM; IC50 (BTK protein kinase): 190 nM; IC50 [20]: 3.6 µM
